# Data as given in the kinase profiling compilation of Christmann-Franck et al. (2016).
# Columns and labels:
# Assay in all cases: KINOMEscan competition binding
# Conditions in all cases: compound 10.0 µM
# LTK (human) = LTK (human) (UniProt P29376)
# MAP3K4 (human) = MAP3K4 (human) (UniProt Q9Y6R4)
# ZAP70 (human) = ZAP70 (human) (UniProt P43403)
# PDGFRB (human) = PDGFRB (human) (UniProt P09619)
# DAPK2 (human) = DAPK2 (human) (UniProt Q9UIK4)
# PKN2 (human) = PKN2 (human) (UniProt Q16513)
# EPHB3 (human) = EPHB3 (human) (UniProt P54753)
# WEE1 (human) = WEE1 (human) (UniProt P30291)
# DCLK2 (human) = DCLK2 (human) (UniProt Q8N568)
# CDK18 (human) = CDK18 (human) (UniProt Q07002)
# NEK2 (human) = NEK2 (human) (UniProt P51955)
# RPS6KA4 KD1 (human) = RPS6KA4 KD1 (human) (UniProt O75676)
# Sequence of RPS6KA4 KD1 (human) (O75676 whole entry, looked up): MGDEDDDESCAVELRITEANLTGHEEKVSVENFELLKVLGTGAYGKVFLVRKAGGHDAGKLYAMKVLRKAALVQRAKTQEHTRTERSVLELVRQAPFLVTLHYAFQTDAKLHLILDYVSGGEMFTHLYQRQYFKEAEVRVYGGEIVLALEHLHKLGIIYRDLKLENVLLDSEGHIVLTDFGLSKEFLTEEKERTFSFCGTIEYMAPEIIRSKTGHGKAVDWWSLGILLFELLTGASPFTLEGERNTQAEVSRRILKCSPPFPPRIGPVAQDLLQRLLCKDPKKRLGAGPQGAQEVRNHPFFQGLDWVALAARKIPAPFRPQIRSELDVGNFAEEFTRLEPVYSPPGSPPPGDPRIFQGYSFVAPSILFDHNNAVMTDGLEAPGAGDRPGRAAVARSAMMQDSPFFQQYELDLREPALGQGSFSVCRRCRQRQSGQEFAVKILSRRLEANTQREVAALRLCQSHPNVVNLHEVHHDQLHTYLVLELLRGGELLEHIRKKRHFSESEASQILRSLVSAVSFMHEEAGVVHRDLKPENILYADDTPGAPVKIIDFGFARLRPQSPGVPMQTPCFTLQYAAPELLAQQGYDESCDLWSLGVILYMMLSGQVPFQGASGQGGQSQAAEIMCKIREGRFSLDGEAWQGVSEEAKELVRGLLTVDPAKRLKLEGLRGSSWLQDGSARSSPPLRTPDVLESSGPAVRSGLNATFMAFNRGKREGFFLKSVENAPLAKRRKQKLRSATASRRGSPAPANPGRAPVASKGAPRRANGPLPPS
# DDR2 (human) = DDR2 (human) (UniProt Q16832)
# DCLK3 (human) = DCLK3 (human) (UniProt Q9C098)
# Sequence of DCLK3 (human) (Q9C098 whole entry, looked up): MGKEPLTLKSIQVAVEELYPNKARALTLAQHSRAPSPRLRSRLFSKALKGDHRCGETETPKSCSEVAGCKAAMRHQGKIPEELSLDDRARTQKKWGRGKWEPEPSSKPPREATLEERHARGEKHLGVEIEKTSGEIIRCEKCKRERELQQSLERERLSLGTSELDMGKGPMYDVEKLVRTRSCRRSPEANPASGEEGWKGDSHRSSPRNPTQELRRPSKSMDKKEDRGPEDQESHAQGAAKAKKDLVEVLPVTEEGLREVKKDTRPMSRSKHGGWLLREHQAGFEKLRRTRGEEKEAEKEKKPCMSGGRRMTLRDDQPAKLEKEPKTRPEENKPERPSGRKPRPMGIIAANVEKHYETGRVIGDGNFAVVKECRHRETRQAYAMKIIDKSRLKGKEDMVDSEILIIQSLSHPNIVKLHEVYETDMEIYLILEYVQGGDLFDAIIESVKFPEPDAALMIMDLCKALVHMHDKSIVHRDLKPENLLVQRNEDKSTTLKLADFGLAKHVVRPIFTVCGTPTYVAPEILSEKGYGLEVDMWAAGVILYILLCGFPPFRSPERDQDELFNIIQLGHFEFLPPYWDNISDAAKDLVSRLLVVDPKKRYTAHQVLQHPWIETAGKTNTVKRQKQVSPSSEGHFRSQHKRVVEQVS
# EPHA6 (human) = EPHA6 (human) (UniProt Q9UF33)
# EPHB1 (human) = EPHB1 (human) (UniProt P54762)
# Sequence of EPHB1 (human) (P54762 whole entry, looked up): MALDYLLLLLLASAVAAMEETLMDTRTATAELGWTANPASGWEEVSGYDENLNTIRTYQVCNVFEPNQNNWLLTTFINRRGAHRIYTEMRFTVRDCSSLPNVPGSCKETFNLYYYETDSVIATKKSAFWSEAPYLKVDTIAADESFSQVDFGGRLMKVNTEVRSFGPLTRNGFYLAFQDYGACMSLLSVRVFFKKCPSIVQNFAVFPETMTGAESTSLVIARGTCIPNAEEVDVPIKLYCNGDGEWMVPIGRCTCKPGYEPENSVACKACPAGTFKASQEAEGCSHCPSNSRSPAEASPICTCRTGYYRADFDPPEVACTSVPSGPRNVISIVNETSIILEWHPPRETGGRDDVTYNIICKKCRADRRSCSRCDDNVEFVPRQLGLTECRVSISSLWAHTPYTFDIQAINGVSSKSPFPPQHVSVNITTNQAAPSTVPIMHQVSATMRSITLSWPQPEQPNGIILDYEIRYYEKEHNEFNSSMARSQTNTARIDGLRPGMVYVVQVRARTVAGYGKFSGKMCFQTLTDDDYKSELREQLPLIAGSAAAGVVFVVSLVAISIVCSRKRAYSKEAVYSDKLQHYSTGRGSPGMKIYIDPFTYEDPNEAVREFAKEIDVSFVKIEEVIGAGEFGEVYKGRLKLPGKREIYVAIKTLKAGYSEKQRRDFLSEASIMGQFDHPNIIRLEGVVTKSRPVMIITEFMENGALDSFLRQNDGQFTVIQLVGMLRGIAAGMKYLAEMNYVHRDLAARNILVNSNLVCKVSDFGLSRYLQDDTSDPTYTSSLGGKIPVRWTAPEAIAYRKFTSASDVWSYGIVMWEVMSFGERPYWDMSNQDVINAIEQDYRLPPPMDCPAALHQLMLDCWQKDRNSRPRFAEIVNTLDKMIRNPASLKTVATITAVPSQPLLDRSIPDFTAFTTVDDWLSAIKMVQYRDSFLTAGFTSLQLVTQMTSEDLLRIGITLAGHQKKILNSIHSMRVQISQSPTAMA
# [1] = biological target: JAK1 JH2 pseudokinase (human) (UniProt P23458)
# PHKG2 (human) = PHKG2 (human) (UniProt P15735)
# STK17A (human) = STK17A (human) (UniProt Q9UEE5)
# FES (human) = FES (human) (UniProt P07332)
# EPHA5 (human) = EPHA5 (human) (UniProt P54756)
# PRKCQ (human) = PRKCQ (human) (UniProt Q04759)
# INSRR (human) = INSRR (human) (UniProt P14616)
# MARK2 (human) = MARK2 (human) (UniProt Q7KZI7)
# FGR (human) = FGR (human) (UniProt P09769)
# Sequence of FGR (human) (P09769 whole entry, looked up): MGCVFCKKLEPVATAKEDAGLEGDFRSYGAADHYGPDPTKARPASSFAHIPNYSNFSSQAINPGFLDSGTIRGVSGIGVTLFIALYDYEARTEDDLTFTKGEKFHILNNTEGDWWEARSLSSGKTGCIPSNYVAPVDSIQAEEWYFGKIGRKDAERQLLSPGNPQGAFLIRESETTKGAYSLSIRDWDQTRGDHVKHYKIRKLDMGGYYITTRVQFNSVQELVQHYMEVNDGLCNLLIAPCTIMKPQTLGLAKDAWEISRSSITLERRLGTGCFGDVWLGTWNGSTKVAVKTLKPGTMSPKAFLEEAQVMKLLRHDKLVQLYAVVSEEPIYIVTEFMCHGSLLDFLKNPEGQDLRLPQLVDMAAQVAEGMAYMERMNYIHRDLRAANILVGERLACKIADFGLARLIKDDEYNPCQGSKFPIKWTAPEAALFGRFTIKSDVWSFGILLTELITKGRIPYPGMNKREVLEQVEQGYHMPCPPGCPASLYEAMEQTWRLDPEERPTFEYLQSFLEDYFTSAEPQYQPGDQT
# LIMK2 (human) = LIMK2 (human) (UniProt P53671)
# Sequence of LIMK2 (human) (P53671 whole entry, looked up): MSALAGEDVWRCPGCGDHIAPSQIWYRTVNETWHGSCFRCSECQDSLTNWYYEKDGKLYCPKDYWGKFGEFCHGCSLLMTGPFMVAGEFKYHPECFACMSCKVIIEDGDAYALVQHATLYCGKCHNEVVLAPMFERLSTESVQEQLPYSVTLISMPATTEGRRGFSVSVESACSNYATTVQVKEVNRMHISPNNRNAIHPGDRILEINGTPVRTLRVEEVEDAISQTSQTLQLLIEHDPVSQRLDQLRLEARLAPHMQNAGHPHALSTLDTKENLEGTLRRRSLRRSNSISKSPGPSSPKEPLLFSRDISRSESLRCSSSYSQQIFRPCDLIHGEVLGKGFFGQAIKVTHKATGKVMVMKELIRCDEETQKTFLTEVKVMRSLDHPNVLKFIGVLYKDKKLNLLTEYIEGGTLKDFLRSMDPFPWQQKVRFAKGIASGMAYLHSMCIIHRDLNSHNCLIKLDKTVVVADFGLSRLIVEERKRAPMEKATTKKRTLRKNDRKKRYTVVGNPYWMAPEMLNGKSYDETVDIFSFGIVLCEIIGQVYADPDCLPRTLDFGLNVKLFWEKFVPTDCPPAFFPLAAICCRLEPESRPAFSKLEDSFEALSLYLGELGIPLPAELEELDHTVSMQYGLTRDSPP
# ANKK1 (human) = ANKK1 (human) (UniProt Q8NFD2)
# MAP3K3 (human) = MAP3K3 (human) (UniProt Q99759)
# MAP3K7 (human) = MAP3K7 (human) (UniProt O43318)
# RIOK2 (human) = RIOK2 (human) (UniProt Q9BVS4)
# MAP4K2 (human) = MAP4K2 (human) (UniProt Q12851)
# Sequence of PDGFRB (human) (P09619 whole entry, looked up): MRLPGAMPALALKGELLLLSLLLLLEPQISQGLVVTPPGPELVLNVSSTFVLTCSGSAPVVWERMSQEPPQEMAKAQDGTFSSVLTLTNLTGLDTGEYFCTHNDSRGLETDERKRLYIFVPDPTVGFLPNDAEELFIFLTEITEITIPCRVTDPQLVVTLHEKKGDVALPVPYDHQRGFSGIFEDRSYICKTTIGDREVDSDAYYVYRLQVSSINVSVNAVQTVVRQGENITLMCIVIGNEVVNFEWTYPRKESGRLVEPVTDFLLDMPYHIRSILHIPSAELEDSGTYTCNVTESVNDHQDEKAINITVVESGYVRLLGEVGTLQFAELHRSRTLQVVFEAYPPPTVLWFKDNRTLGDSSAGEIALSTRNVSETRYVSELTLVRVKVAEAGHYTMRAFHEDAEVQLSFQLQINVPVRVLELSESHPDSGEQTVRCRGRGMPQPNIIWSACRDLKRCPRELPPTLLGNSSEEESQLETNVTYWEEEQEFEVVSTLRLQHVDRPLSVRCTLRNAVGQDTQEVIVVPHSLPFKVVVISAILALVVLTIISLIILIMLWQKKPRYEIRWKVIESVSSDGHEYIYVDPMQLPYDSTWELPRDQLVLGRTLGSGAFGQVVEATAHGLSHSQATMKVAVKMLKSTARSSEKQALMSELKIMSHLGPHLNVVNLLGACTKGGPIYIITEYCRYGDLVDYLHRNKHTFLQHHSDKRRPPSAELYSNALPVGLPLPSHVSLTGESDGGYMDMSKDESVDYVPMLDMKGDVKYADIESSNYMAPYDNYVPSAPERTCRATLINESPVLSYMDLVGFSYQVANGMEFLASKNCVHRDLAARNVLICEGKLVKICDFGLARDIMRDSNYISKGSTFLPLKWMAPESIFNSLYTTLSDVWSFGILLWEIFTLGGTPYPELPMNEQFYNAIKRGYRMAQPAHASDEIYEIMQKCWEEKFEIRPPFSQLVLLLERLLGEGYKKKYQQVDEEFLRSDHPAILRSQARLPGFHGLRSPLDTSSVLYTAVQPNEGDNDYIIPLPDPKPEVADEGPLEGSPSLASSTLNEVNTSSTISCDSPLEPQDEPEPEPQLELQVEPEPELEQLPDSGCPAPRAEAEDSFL
# Sequence of DAPK2 (human) (Q9UIK4 whole entry, looked up): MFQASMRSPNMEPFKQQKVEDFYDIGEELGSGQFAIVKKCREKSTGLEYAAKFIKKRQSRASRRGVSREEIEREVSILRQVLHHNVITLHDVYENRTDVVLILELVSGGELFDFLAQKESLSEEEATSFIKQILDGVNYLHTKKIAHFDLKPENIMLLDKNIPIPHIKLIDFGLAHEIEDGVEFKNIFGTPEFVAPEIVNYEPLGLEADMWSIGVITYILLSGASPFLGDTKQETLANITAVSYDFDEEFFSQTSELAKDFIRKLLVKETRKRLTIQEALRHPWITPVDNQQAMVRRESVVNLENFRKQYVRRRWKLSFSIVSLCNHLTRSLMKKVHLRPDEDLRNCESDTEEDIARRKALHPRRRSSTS
Compound,"kinase still bound, per cent of control (LTK (human)) [%]","kinase still bound, per cent of control (MAP3K4 (human)) [%]","kinase still bound, per cent of control (ZAP70 (human)) [%]","kinase still bound, per cent of control (PDGFRB (human)) [%]","kinase still bound, per cent of control (DAPK2 (human)) [%]","kinase still bound, per cent of control (PKN2 (human)) [%]","kinase still bound, per cent of control (EPHB3 (human)) [%]","kinase still bound, per cent of control (WEE1 (human)) [%]","kinase still bound, per cent of control (DCLK2 (human)) [%]","kinase still bound, per cent of control (CDK18 (human)) [%]","kinase still bound, per cent of control (NEK2 (human)) [%]","kinase still bound, per cent of control (RPS6KA4 KD1 (human)) [%]","kinase still bound, per cent of control (DDR2 (human)) [%]","kinase still bound, per cent of control (DCLK3 (human)) [%]","kinase still bound, per cent of control (EPHA6 (human)) [%]","kinase still bound, per cent of control (EPHB1 (human)) [%]","kinase still bound, per cent of control [1] [%]","kinase still bound, per cent of control (PHKG2 (human)) [%]","kinase still bound, per cent of control (STK17A (human)) [%]","kinase still bound, per cent of control (FES (human)) [%]",also measured
CCN(CC)CCCCNc1ncc2cc(-c3cc(OC)cc(OC)c3)c(NC(=O)NC(C)(C)C)nc2n1,100,100,100,38,100,100,100,100,100,100,100,100,100,100,100,100,100,100,100,100,"kinase still bound, per cent of control (EPHA5 (human)): 100%; kinase still bound, per cent of control (PRKCQ (human)): 100%; kinase still bound, per cent of control (INSRR (human)): 100%; kinase still bound, per cent of control (MARK2 (human)): 100%; kinase still bound, per cent of control (FGR (human)): 100%; kinase still bound, per cent of control (LIMK2 (human)): 100%; kinase still bound, per cent of control (ANKK1 (human)): 100%"
CNC(=O)c1ccc(Nc2cc(Nc3ccccc3S(=O)(=O)C(C)C)c3cc[nH]c3n2)nc1,0,100,100,8.4,100,5.4,100,100,100,100,100,2.2,100,2.8,29,100,0.05,100,100,12,"kinase still bound, per cent of control (MAP3K3 (human)): 4.8%; kinase still bound, per cent of control (MAP3K7 (human)): 0.35%; kinase still bound, per cent of control (RIOK2 (human)): 13%; kinase still bound, per cent of control (EPHA5 (human)): 100%; kinase still bound, per cent of control (PRKCQ (human)): 24%; kinase still bound, per cent of control (MAP4K2 (human)): 11%; kinase still bound, per cent of control (INSRR (human)): 3.2%; kinase still bound, per cent of control (MARK2 (human)): 33%; kinase still bound, per cent of control (FGR (human)): 5%; kinase still bound, per cent of control (LIMK2 (human)): 100%; kinase still bound, per cent of control (ANKK1 (human)): 100%"
C=CC(=O)Nc1ccc(CN(C(=O)Nc2c(Cl)c(OC)cc(OC)c2Cl)c2cc(Nc3ccc(N4CCN(C)CC4)cc3)ncn2)cc1,27,10,100,0,100,100,100,100,100,100,100,100,100,100,100,100,100,100,100,4,"kinase still bound, per cent of control (MAP3K3 (human)): 5.8%; kinase still bound, per cent of control (MAP3K7 (human)): 100%; kinase still bound, per cent of control (RIOK2 (human)): 100%; kinase still bound, per cent of control (EPHA5 (human)): 100%; kinase still bound, per cent of control (PRKCQ (human)): 100%; kinase still bound, per cent of control (MAP4K2 (human)): 100%; kinase still bound, per cent of control (INSRR (human)): 18%; kinase still bound, per cent of control (MARK2 (human)): 100%; kinase still bound, per cent of control (FGR (human)): 7%; kinase still bound, per cent of control (LIMK2 (human)): 100%; kinase still bound, per cent of control (ANKK1 (human)): 100%"
